Measured values: patent publication US20040253192A1, “Breath Freshening and Oral Cleansing Product Using Cardamom Oil” (priority 2002, published 2004)
In brackets after ≈: the same amount, converted by molar mass.

Legend:
Assay type in all cases: cell-based
[1] = tested on: Fusobacterium nucleatum; assay: MBC (minimum bactericidal concentration) determination, plating on blood agar; conditions: F. nucleatum, lowest concentration killing at least 99.9% of initial inoculum, plates 48 hours at 37° C.
Method: (§1) The MBC (Minimum bactericidal concentrations) were determined using the 96 well microtiter plate serial dilutions as described above for MIC studies. Serial dilution of cultures in wells showing no visible growth were performed and 10 microliters of culture were plated in triplicate on blood agar plates. Viable colonies were scored after incubation of the plates for 48 hours at 37° C. For each test bacterium, the number of CFU/ml were determined in the initial inoculum. The MBC was defined as the lowest concentration of a test compound that killed at least 99.9% of the cells present in the initial inoculum.

[2] = tested on: Porphyromonas gingivalis; assay: as above; conditions: P. gingivalis, lowest concentration killing at least 99.9% of initial inoculum, plates 48 hours at 37° C.
Method: as §1

[3] = tested on: Fusobacterium nucleatum; assay: MIC (minimum inhibitory concentration) study, 96 well microtiter plates; conditions: F. nucleatum, 48 hours at 37° C., turbidity at 660 nm
Method: (§2) In vitro tests were conducted with a gram positive supragingival plaque bacterium, Streptococcus mutans. In addition, two subgingival plaque bacteria associated with oral malodor were tested, Porphyromonas gingivalis and Fusobacterium nucleatum. The MIC (Minimum Inhibitory Concentrations) study protocol is as follows. Chlorhexidine was used as a positive control and sterile water was used as a negative control. Cardamom oil was suspended in 10% methanol with 3.8% Tween 80. […] 96 well microtiter plates were used for this study. Each well contained 5×10^5 colony forming units/ml of bacteria, serially diluted agents and bacterial growth medium. All bacterial cultures were incubated at 37° C. and stationary. Bacterial growth was estimated spectrophotometrically at 660 nm, after 48 hours. The MIC for each test bacteria was defined as the minimum concentration of test compound limiting turbidity to […].

[4] = tested on: Porphyromonas gingivalis; assay: as above; conditions: P. gingivalis, 48 hours at 37° C., turbidity at 660 nm
Method: as §2

MIC [3]: 1.25 µg/mL (≈ 2.47 µM) | MIC [4]: 1.25 µg/mL (≈ 2.47 µM)
Structure (SMILES): [H]/N=C(\N/C(=N/[H])NCCCCCCNC(=N)NC(=N)Nc1ccc(Cl)cc1)Nc1ccc(Cl)cc1 [Cholorhexidine, Chlorhexidine]
MBC [1]: 1.25 µg/mL (≈ 2.47 µM) | MBC [2]: 1.25 µg/mL (≈ 2.47 µM)
